Measurements published in patent US9708306B2, “Benzimidazole derivatives and preparation process and pharmaceutical uses thereof” (WUHAN LL SCIENCE AND TECHNOLOGY DEVELOPMENT CO., LTD, priority 2015, dated 2017).
Values joined by “and” are separate entries in the source; they are usually repeats but may differ in a detail not shown here. Identical values can stand only once.

Legend:
[1] = tested on: renovascular hypertensive rats; test: Effect on reducing blood pressure of renovascular hypertensive rats by single oral administration; format: in vivo, Wistar rats; settings: for change in vivo at 0.5 mg/kg / inhibition in vivo at 0.5 mg/kg / change in vivo at 1 mg/kg / inhibition in vivo at 1 mg/kg / change in vivo at 2 mg/kg / inhibition in vivo at 2 mg/kg: Rattus norvegicus, single oral administration; for change in vivo at 0.5 mg/kg / change in vivo at 1 mg/kg / change in vivo at 2 mg/kg: RHR, read-out: Variations on heart rate; for inhibition in vivo at 0.5 mg/kg / inhibition in vivo at 1 mg/kg / inhibition in vivo at 2 mg/kg: two-kidney one-clip RHR, measured 1-10 h, read-out: Maximum blood pressure reduction; for blood pressure reduction effect compared with Azilsartan medoxomil: renal artery-ligated rat, result in words
[2] = tested on: normal rats; test: Effect on blood pressure of normal rats by single oral administration; format: in vivo, Wistar rats; settings: for inhibition in vivo at 0.5 mg/kg / inhibition in vivo at 1 mg/kg / inhibition in vivo at 2 mg/kg / change in vivo at 0.5 mg/kg / change in vivo at 1 mg/kg / change in vivo at 2 mg/kg: Rattus norvegicus, po, single, normal rats; for inhibition in vivo at 0.5 mg/kg / inhibition in vivo at 1 mg/kg / inhibition in vivo at 2 mg/kg: 8 h, read-out: blood pressure reduction at 8 h after the administration; for inhibition in vivo at 0.5 mg/kg / change in vivo at 0.5 mg/kg: 0.5 mg/kg p.o.; for inhibition in vivo at 1 mg/kg / change in vivo at 1 mg/kg: 1.0 mg/kg p.o.; for inhibition in vivo at 2 mg/kg / change in vivo at 2 mg/kg: 2.0 mg/kg p.o.; for change in vivo at 0.5 mg/kg / change in vivo at 1 mg/kg / change in vivo at 2 mg/kg: read-out: variations on heart rate

Compound | Maximum blood pressure reduction ([1]; rat, in vivo) | Variations on heart rate ([1]; rat, in vivo) | blood pressure reduction at 8 h after the administration ([2]; rat, in vivo) | change in vivo at 0.5 mg/kg [1] [%] | inhibition in vivo at 0.5 mg/kg [1] [%] | change in vivo at 1 mg/kg [1] [%] | inhibition in vivo at 1 mg/kg [1] [%] | change in vivo at 2 mg/kg [1] [%] | inhibition in vivo at 2 mg/kg [1] [%] | inhibition in vivo at 0.5 mg/kg [2] [%] | inhibition in vivo at 1 mg/kg [2] [%] | inhibition in vivo at 2 mg/kg [2] [%] | change in vivo at 0.5 mg/kg [2] [%] | change in vivo at 1 mg/kg [2] [%] | change in vivo at 2 mg/kg [2] [%] | blood pressure reduction effect compared with Azilsartan medoxomil [1]
1-(6-methypyridazine-2-methoxy-carbonyloxy)ethyl-2-ethoxy-1-{[2′-(5-oxo-4,5-dihydro-1,2,4-oxadiazole)-3-yl)biphenyl-4-yl]methyl}-1H-benzimidazole-7-carboxylate [QR01029] | 12 ± 2.1% and 15 ± 4.3% and 24 ± 5.2% | −4 ± 3% and −5 ± 2% and −8 ± 2% | 4.2 ± 3.2% and 5.8 ± 2.2% and 3.4 ± 4.8% |  |  |  |  |  |  |  |  |  |  |  |  | 
CCOc1nc2cccc(C(=O)OCOC(=O)OC(C)C)c2n1Cc1ccc(-c2ccccc2-c2noc(=O)[nH]2)cc1 [QR01002] |  |  |  | -5 ± 4 | 12 ± 2.4 | -8 ± 3 | 15 ± 1.8 | -6 ± 4 | 19 ± 4.2 | 5.6 ± 2.3 | 6.4 ± 2.1 | 6.4 ± 2.1 | -4 ± 5 | -5 ± 4 | 5 | 
CCOc1nc2cccc(C(=O)OCCOC(C)=O)c2n1Cc1ccc(-c2ccccc2-c2noc(=O)[nH]2)cc1 [QR01004] |  |  |  | 0 | 7 ± 1.2 | -5 ± 3 | 10 ± 2.3 | -3 ± 1 | 12 ± 3.4 | 7.5 ± 1.4 | 6.7 ± 1.3 | 5.7 ± 2.6 | -1 ± 2 | -2 ± 1 | 3 | 
CCOc1nc2cccc(C(=O)OCc3nc(C)c(C)nc3C)c2n1Cc1ccc(-c2ccccc2-c2noc(=O)[nH]2)cc1 [QR01006] |  |  |  | -4 ± 2 | 14 ± 3.4 | -5 ± 3 | 18 ± 3.6 | -5 ± 3 | 24 ± 4.1 | 6.3 ± 2.8 | 7.2 ± 1.9 | 4.2 ± 2.1 | -3 ± 4 | 2 | -5 ± 6 | 
CCOc1nc2cccc(C(=O)OC3COC4C(O[N+](=O)[O-])COC34)c2n1Cc1ccc(-c2ccccc2-c2noc(=O)[nH]2)cc1 (centres unmarked) [QR01007] |  |  |  | -3 ± 1 | 10 ± 1.5 | -8 ± 3 | 12 ± 2 | -5 ± 2 | 18 ± 3.5 | 3.5 ± 3.4 | 2.5 ± 4.6 | 3.7 ± 4.3 | -3 ± 2 | -7 ± 2 | 5 | 
CCOc1nc2cccc(C(=O)OCCCCO[N+](=O)[O-])c2n1Cc1ccc(-c2ccccc2-c2noc(=O)[nH]2)cc1 [QR01008] |  |  |  | -8 ± 5 | 17 ± 3.1 | -15 ± 3 | 28 ± 3.4 | -18 ± 5 | 35 ± 3.4 | 4.5 ± 2.7 | 4.6 ± 2.5 | 2.1 ± 2.4 | -6 ± 2 | 4 | -2 ± 3 | close to that of Azilsartan medoxomil
CCOc1nc2cccc(C(=O)Oc3ccc(OCc4c(-c5ccccc5)no[n+]4[O-])cc3)c2n1Cc1ccc(-c2ccccc2-c2noc(=O)[nH]2)cc1 [QR01010] |  |  |  | 5 | 21 ± 4.7 | -3 ± 1 | 26 ± 5.4 | -5 ± 3 | 30 ± 3.6 | 2.1 ± 3.2 | 4.6 ± 4.7 | 5.7 ± 2.3 | 5 | -5 ± 1 | -4 ± 5 | 
CCOc1nc2cccc(C(=O)OCCCCOc3no[n+]([O-])c3S(=O)(=O)c3ccccc3)c2n1Cc1ccc(-c2ccccc2-c2noc(=O)[nH]2)cc1 [QR01011] |  |  |  | -5 ± 3 | 16 ± 4.3 | -8 ± 6 | 28 ± 1.3 | -6 ± 4 | 29 ± 4 | 2.7 ± 3.6 | 3.8 ± 2.1 | 3.7 ± 5 | -3 ± 5 | 6 | -5 ± 3 | close to that of Azilsartan medoxomil
CCOc1nc2cccc(C(=O)ONC(=N)Nc3ccccc3)c2n1Cc1ccc(-c2ccccc2-c2noc(=O)[nH]2)cc1 [QR01012] |  |  |  | 2 | 17 ± 3.7 | -3 ± 4 | 22 ± 1 | -5 ± 2 | 27 ± 2.8 | 1.9 ± 3.2 | 3.9 ± 2.1 | 4.6 ± 2.4 | 1 | -3 ± 2 | -3 ± 4 | 
CCOc1nc2cccc(C(=O)OCc3oc(=O)c(=O)oc3C)c2n1Cc1ccc(-c2ccccc2-c2noc(=O)[nH]2)cc1 [QR01014] |  |  |  | -2 ± 3 | 16 ± 3.5 | -4 ± 2 | 21 ± 4.3 | -4 ± 5 | 26 ± 2.1 | 2.9 ± 3.4 | 2.7 ± 3.6 | 4.6 ± 3.2 | -4 ± 2 | -3 ± 3 | 4 | 
CCOC(=O)C(=O)OC(C)C(=O)COC(=O)c1cccc2nc(OCC)n(Cc3ccc(-c4ccccc4-c4noc(=O)[nH]4)cc3)c12 (centres unmarked) [QR01015] |  |  |  | 4 | 10 ± 1.5 | 2 | 12 ± 2 | 3 | 18 ± 3.5 | 3.7 ± 2.6 | 2.3 ± 1.8 | 1.8 ± 2.4 | 3 | 1 | -3 ± 3 | 
CCOc1nc2cccc(C(=O)OCCO[N+](=O)[O-])c2n1Cc1ccc(-c2ccccc2-c2noc(=O)[nH]2)cc1 [QR01016] |  |  |  | 1 | 11 ± 3.1 | 5 | 12 ± 9.2 | 4 | 15 ± 6.5 | 3.6 ± 2.8 | 4.2 ± 5.7 | 5.9 ± 3.2 | 1 | 5 | 3 | 
CCOc1nc2cccc(C(=O)OCc3c(C)no[n+]3[O-])c2n1Cc1ccc(-c2ccccc2-c2noc(=O)[nH]2)cc1 [QR01025] |  |  |  | 4 ± 6 | 18 ± 3.4 | -7 ± 5 | 22 ± 4.5 | -7 ± 3 | 28 ± 3.2 | 3.3 ± 3.2 | 6.2 ± 3.8 | 3.7 ± 4.1 | -2 ± 3 | 6 | -3 ± 4 | 
